Results taken from publication PMC10064984, “Anti-cyclooxygenase, anti-glycation, and anti-skin aging effect of Dendrobium officinale flowers’ aqueous extract and its phytochemical validation in aging” (Frontiers in Immunology, 2023).
“And” between values parts separate entries of the source, which are not always exact repeats. Equal values may be shown once. Read-outs that look alike come from different tables or passages of the source.

Tests used:
Assay type in all cases: biochemical
[1] = FRAP total antioxidant capacity; conditions: lower part of sheet (compound series);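 further: colourimetric FRAP kit assay read as absorbance in 96-well plates, values as mM FeSO4 via standard curve, EC1 being sample concentration matching 1.0 mmol/L FeSO4, Trolox positive control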
DPPH· scavenging = conditions: mean ± SD, n = 3
[2] = ABTS·+ decolourisation capacity; conditions: for IC50: mean ± SD, n = 3; for ABTS scavenging rate: 0.5mM series, replicate wells, listed as T17
Protocol: Fast colourimetric methods were slightly modified for the in vitro assessment of DPPH· scavenging ([19]), ABTS·+ decolourisation capacity ([20]), and total antioxidant capacity of FRAP ([21]). The stock solutions of derivatisation reagents were diluted as follows before measurement: DPPH was diluted with absolute ethanol until the absorbance was 0.8 ± 0.05 at λ = 517 nm. ABTS working solution was prepared with phosphate buffer (0.2 M, pH 7.4) to display absorbance of 0.8 ± 0.05 at λ = 729 nm, based on a previous study ([22]). The FRAP solution was prepared according to the instructions of the FRAP kit. Absorbances were measured using an automatic microplate reader (Molecular Group Ltd., USA), and all analyses were performed using 96-well plates. All measurements were performed in triplicate, and Trolox was used as a positive control.
For ABTS·+ decolourisation capacity, 100 μl of ABTS working solution was mixed with 200 μl of sample solution, and the absorbance was recorded after 10 min at 729 nm. Phosphate buffer (0.2 M, pH 7.4) was used as a negative control.
DPPH· and ABTS·+ radical scavenging activities of the tested sample were both calculated using the following formula:
% inhibition = (A control − A sample)/A control × 100
Where A control and A sample represent the absorbance of the control and test samples, respectively. The IC50 was calculated graphically from the dose-inhibition curves.

[3] = Fluorescent AGEs formation in a BSA-fructose/glucose system; conditions: for inhibition of fluorescent AGEs formation (BSA-抗糖化), single replicate: individual replicate; for inhibition of fluorescent AGEs formation (BSA-抗糖化), 平均 (mean): mean of 3 replicates; for IC50: mean ± SD, n = 3, read-out: BSA-glycation IC50
Protocol: Glycated protein was prepared in vitro by incubating BSA in the presence of D-glucose (GLC) and D-fructose (FRC). The DOF extract and specific standards were dissolved in DMSO:water (1:4). […] The assay was performed in triplicate, and AG was used as a positive control. The percentage inhibition of fluorescent AGE formation was calculated using the following equation: […] Where IF sample is fluorescence intensity in the presence of samples and BSA, IF sample control is fluorescence intensity in the presence of samples without BSA, IF control is fluorescence intensity without samples, and IF blank control is fluorescence intensity without samples and BSA.

COX-2 = biological target: T1, COX-2 (Homo sapiens, UniProt P35354); assay: Anti-COX-2 assay (COX-2 Inhibitor Screening Kit)
T1 construct: purchased Beyotime S0168
T1 sequence (P35354 18-604): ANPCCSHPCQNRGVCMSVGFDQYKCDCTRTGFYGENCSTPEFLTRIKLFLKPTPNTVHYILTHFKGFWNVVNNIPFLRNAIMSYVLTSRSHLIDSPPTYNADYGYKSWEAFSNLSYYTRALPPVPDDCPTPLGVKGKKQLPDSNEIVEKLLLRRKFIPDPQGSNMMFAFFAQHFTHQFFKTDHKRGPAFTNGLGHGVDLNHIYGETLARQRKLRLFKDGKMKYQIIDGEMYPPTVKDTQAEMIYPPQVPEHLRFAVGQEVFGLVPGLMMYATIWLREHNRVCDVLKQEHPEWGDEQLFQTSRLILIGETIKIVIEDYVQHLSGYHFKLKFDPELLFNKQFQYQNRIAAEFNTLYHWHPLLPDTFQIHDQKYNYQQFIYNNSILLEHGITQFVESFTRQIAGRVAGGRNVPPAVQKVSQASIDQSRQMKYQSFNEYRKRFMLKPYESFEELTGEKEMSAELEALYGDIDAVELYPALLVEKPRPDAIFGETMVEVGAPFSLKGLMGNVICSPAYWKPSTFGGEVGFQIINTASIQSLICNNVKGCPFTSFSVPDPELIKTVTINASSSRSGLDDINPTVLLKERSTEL

In the case of Kaempferol-3-O-rutinoside [compound 28], the “FRAP EC1” value [1] is reported as greater than 5000 µM, the IC50 (DPPH· scavenging) is reported as greater than 5000 µM and the IC50 [2] is reported as 35.01 ± 0.22 µM. For the same compound, the “inhibition of fluorescent AGEs formation (BSA-抗糖化), single replicate” value (“inhibition … single replicate” for short) ([3]; 15.625 µM, listed as T12, 15.625 µM) was -0.31% and 7.28% and -2.72%, the “inhibition of fluorescent AGEs formation (BSA-抗糖化), 平均 (mean)” value (“inhibition … (mean)” below) ([3]; 15.625 µM) was 1.41% and the “inhibition … single replicate” value ([3]; 31.25 µM, listed as T12, 31.25 µM) was 6.95% and 5.50% and 2.44%. For the same compound, the “inhibition … (mean)” value ([3]; 31.25 µM) was 4.96%, the “inhibition … single replicate” value ([3]; 62.5 µM, listed as T12, 62.5 µM) was 13.47% and 13.89% and 14.50% and the “inhibition … (mean)” value ([3]; 62.5 µM) was 13.95%. For the same compound, the “inhibition … single replicate” value ([3]; 125 µM, listed as T12, 125 µM) was 22.45% and 28.29% and 22.60%, the “inhibition … (mean)” value ([3]; 125 µM) was 24.45% and the “inhibition … single replicate” value ([3]; 250 µM, listed as T12, 250 µM) was 38.13% and 38.77% and 37.66%. For the same compound, the “inhibition … (mean)” value ([3]; 250 µM) was 38.19%, the “inhibition … single replicate” value ([3]; 500 µM, listed as T12, 500 µM) was 58.09% and 57.21% and 56.73% and the “inhibition … (mean)” value ([3]; 500 µM) was 57.34%. For the same compound, the “inhibition … single replicate” value ([3]; 1000 µM, listed as T12, 1000 µM) was 74.99% and 76.95% and 73.93%, the “inhibition … (mean)” value ([3]; 1000 µM) was 75.29% and the “inhibition … single replicate” value ([3]; 2000 µM, listed as T12, 2000 µM) was 85.90% and 86.14% and 85.80%. For the same compound, the “inhibition … (mean)” value ([3]; 2000 µM) was 85.95%, the “inhibition … single replicate” value ([3]; 4000 µM (series head 'T9 4000µM', 2-fold dilutions), listed as T12) was 92.80% and 92.79% and 92.84% and the “inhibition … (mean)” value ([3]; 4000 µM) was 92.81%. The IC50 [3] was 374 ± 18.1 µM, the “COX-2 inhibition (in words)” value (COX-2) was “no inhibitory effects” and the COX-2 inhibition (COX-2; 3.125 μM, single replicates, listed as T12, 3.125 µM) was 24.76% and 3.80%. The COX-2 inhibition (COX-2; 6.25 μM, single replicates, listed as T12, 6.25 µM) was 9.88% and 6.40% and 22.14%, the COX-2 inhibition (COX-2; 12.5 μM, single replicates, listed as T12, 12.5 µM) was -1.05% and 3.59% and 13.88% and the COX-2 inhibition (COX-2; 25 μM, single replicates, listed as T12, 25 µM) was -5.04% and -8.91% and 26.95%. The COX-2 inhibition (COX-2; 50 μM, single replicates, listed as T12, 50 µM) was -2.18% and -5.56% and 1.52%, the COX-2 inhibition (COX-2; 100 μM, single replicates, listed as T12, 100 µM) was 7.51% and -46.40% and 2.25% and the COX-2 inhibition (COX-2; 200 μM, single replicates, listed as T12, 200 µM) was -9.13% and -25.75% and 1.42%.
For `O=c1cc(-c2ccc(O)c(O)c2)oc2cc(O)c(C3OC(CO)C(O)C(O)C3O)c(O)c12` [compound 18, Luteolin-6-C-β-D-glucoside], the “FRAP EC1” value [1] was 506.6 ± 78.3 µM, the IC50 (DPPH· scavenging) was 102 ± 6.2 µM and the ABTS scavenging rate ([2]; concentration 7.8125 (unit not given)) was 55.37% and 55.07% and 56.44%. For the same compound, the ABTS scavenging rate ([2]; concentration 15.625 (unit not given)) was 79.33% and 79.42% (2×), the ABTS scavenging rate ([2]; concentration 31.25 (unit not given)) was 99.48% (2×) and 99.43% and the ABTS scavenging rate ([2]; concentration 62.5 (unit not given)) was 99.27% and 99.11% and 99.08%. For the same compound, the ABTS scavenging rate ([2]; concentration 125 (unit not given)) was 99.06% and 98.78% and 98.90%, the ABTS scavenging rate ([2]; concentration 250 (unit not given)) was 98.95% and 99.14% and 99.11% and the ABTS scavenging rate ([2]; concentration 500 (unit not given)) was 99.30% and 99.22% and 99.17%. For the same compound, the IC50 [2] was 7.1 ± 0.1 µM, the IC50 [3] was 317 ± 15.6 µM and the “COX-2 inhibition (in words)” value (COX-2) was “great COX-2 inhibition”. The inhibition at 3.125 µM (COX-2; 3.125 μM, single replicates) was 16.9%, the COX-2 inhibition (COX-2; 3.125 μM, single replicates, listed as T17, 3.125 µM) was 26.59% and 29.93% and the COX-2 inhibition (COX-2; 6.25 μM, single replicates, listed as T17, 6.25 µM) was 36.73% and 36.77% and 59.48%. For the same compound, the inhibition at 12.5 µM (COX-2; 12.5 μM, single replicates) was 65.1%, the COX-2 inhibition (COX-2; 12.5 μM, single replicates, listed as T17, 12.5 µM) was 69.47% and 74.84% and the inhibition at 25 µM (COX-2; 25 μM, single replicates) was 74.8%. The COX-2 inhibition (COX-2; 25 μM, single replicates, listed as T17, 25 µM) was 75.14% and 79.85%, the inhibition at 50 µM (COX-2; 50 μM, single replicates) was 78.4% and the COX-2 inhibition (COX-2; 50 μM, single replicates, listed as T17, 50 µM) was 79.38% and 83.25%. For the same compound, the inhibition at 100 µM (COX-2; 100 μM, single replicates) was 84.8%, the COX-2 inhibition (COX-2; 100 μM, single replicates, listed as T17, 100 µM) was 81.46% and 83.62% and the inhibition at 200 µM (COX-2; 200 μM, single replicates) was 90.6%. The COX-2 inhibition (COX-2; 200 μM, single replicates, listed as T17, 200 µM) was 89.90% and 90.15%, the IC50 (COX-2; mean ± SD, n = 3, nd, not detected, read-out: COX-2 IC50) was 7.9 ± 2.4 µM and the IC50 (COX-2; supplement sheet COX, read-out: COX-2 IC50, single replicate) was 10 µM and 8.56 µM and 5.24 µM.
For `O=c1cc(-c2ccc(O)cc2)oc2c(C3OCC(O)C(O)C3O)c(O)c(C3OC(CO)C(O)C(O)C3O)c(O)c12` (stereo not drawn) [compound 17, Schaftoside], the “FRAP EC1” value [1] was greater than 5000 µM, the IC50 (DPPH· scavenging) was greater than 5000 µM and the IC50 [2] was 75.6 ± 12.1 µM. The IC50 [3] was 250 ± 4.16 µM, the “COX-2 inhibition (in words)” value (COX-2) was “no inhibitory effects” and the COX-2 inhibition (COX-2; 31.25 μM, single replicates, listed as T4, 31.25 µM) was -26.58% and -23.72% and 26.46%. For the same compound, the COX-2 inhibition (COX-2; 62.5 μM, single replicates, listed as T4, 62.5 µM) was -5.78% and -8.50% and -9.30%, the COX-2 inhibition (COX-2; 125 μM, single replicates, listed as T4, 125 µM) was -21.60% and 2.72% and the COX-2 inhibition (COX-2; 250 μM, single replicates, listed as T4, 250 µM) was -34.33% and -33.14% and 20.94%. For the same compound, the COX-2 inhibition (COX-2; 500 μM, single replicates, listed as T4, 500 µM) was -36.70% and -25.03% and -14.74%, the COX-2 inhibition (COX-2; 1000 μM, single replicates, listed as T4, 1000 µM) was -40.79% and -25.81% and -34.65% and the COX-2 inhibition (COX-2; 2000 μM (2mM), single replicates, listed as T4) was -30.80% and -21.24% and -15.63%.
